The assay has as its system HEK293-STF3A cells. In words: STF3A assay (luciferase reporter). Format: cell-based, Human. To be noted: Homo sapiens, 24 h, 1 day of treatment. Put shortly: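 HEK293 cells carrying the STF reporter and expressing Wnt3A, seeded 2×10^4 per well overnight, then treated 1 day with compound at final 50 μM to 1.5 nM. Luciferase activity read by luminescence after Steady-Glo reagent, 10 min at room temperature.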
One may read the IC50 as the concentration at which inhibition is half-maximal. A lower IC50 goes with inhibition by little substance. Compound `Cc1cc2n(n1)CCCN2C(=O)CCC(=O)Nc1ccc(-c2cncc(C(F)(F)F)c2)nn1` [Compound 105, 4-(2-methyl-6,7-dihydropyrazolo[1,5-a]pyrimidin-4(5H)-yl)-4-oxo-N-(6-(5-(trifluoromethyl)pyridin-3-yl)pyridazin-3-yl)butanamide] had a 50% inhibitory concentration (IC50) below 100 nM.

Compound `Cc1cc2n(n1)CCCN2C(=O)CCC(=O)Nc1cc(C)c(-c2cccnc2)nn1` [Compound 106, 4-(2-methyl-6,7-dihydropyrazolo[1,5-a]pyrimidin-4(5H)-yl)-N-(5-methyl-6-(pyridin-3-yl)pyridazin-3-yl)-4-oxobutanamide] gave an IC50 below 5000 nM. To `Cc1ccc(-c2ccc(NC(=O)CCC(=O)N3CCCn4nc(C)cc43)nn2)cn1` [Compound 107, 4-(2-methyl-6,7-dihydropyrazolo[1,5-a]pyrimidin-4(5H)-yl)-N-(6-(6-methylpyridin-3-yl)pyridazin-3-yl)-4-oxobutanamide] belongs below 100 nM; to `Cc1cc2n(n1)CCCN2C(=O)CCC(=O)Nc1ccc(-c2cncc(Cl)c2)nc1` [Compound 108, N-(5′-chloro-[2,3′-bipyridin]-5-yl)-4-(2-methyl-6,7-dihydropyrazolo[1,5-a]pyrimidin-4(5H)-yl)-4-oxobutanamide], below 100 nM. To `Cc1cc2n(n1)CCCN2C(=O)CCC(=O)Nc1ccc(-c2cncc(F)c2)nc1` [Compound 109, N-(5′-fluoro-[2,3′-bipyridin]-5-yl)-4-(2-methyl-6,7-dihydropyrazolo[1,5-a]pyrimidin-4(5H)-yl)-4-oxobutanamide] belongs below 100 nM; to `Cc1cc2n(n1)CCCN2C(=O)CCC(=O)Nc1cnc(-c2cccnc2)c(F)c1` [Compound 111, N-(3-fluoro-2,3′-bipyridin-5-yl)-4-(2-methyl-6,7-dihydropyrazolo[1,5-a]pyrimidin-4(5H)-yl)-4-oxobutanamide], below 100 nM; to `Cc1cc2n(n1)CCCN2C(=O)CCC(=O)Nc1ccc(-c2cncc(N)c2)nc1` [Compound 112, N-(5′-amino-2,3′-bipyridin-5-yl)-4-(2-methyl-6,7-dihydropyrazolo[1,5-a]pyrimidin-4(5H)-yl)-4-oxobutanamide], below 1000 nM. The compound `Cc1ccc(-c2ccc(NC(=O)CCC(=O)N3CCCn4nc(C)cc43)cn2)cn1` [Compound 113, 4-(2-methyl-6,7-dihydropyrazolo[1,5-a]pyrimidin-4(5H)-yl)-N-(6′-methyl-[2,3′-bipyridin]-5-yl)-4-oxobutanamide] returned an IC50 below 100 nM. The value for `Cc1cc2n(n1)CCCN2C(=O)CCC(=O)Nc1ccc(-c2cncc(Cl)c2)cn1` [Compound 114, N-(5′-chloro-[3,3′-bipyridin]-6-yl)-4-(2-methyl-6,7-dihydropyrazolo[1,5-a]pyrimidin-4(5H)-yl)-4-oxobutanamide] was below 100 nM; that for `Cc1cc2n(n1)CCCN2C(=O)CCC(=O)Nc1ccc(-c2cncc(F)c2)cn1` [Compound 115, N-(5′-fluoro-[3,3′-bipyridin]-6-yl)-4-(2-methyl-6,7-dihydropyrazolo[1,5-a]pyrimidin-4(5H)-yl)-4-oxobutanamide] was below 100 nM. For `Cc1cncc(-c2ccc(NC(=O)CCC(=O)N3CCCn4nc(C)cc43)nc2)c1` [Compound 116, 4-(2-methyl-6,7-dihydropyrazolo[1,5-a]pyrimidin-4(5H)-yl)-N-(5′-methyl-[3,3′-bipyridin]-6-yl)-4-oxobutanamide], the IC50 was below 100 nM. To `Cc1cc2n(n1)CCCN2C(=O)CCC(=O)Nc1ccc(-c2cncc(N)c2)cn1` [Compound 117] belongs below 100 nM; to `Cc1cc2n(n1)CCCN2C(=O)CCC(=O)Nc1ccc(-c2cncc(C(F)(F)F)c2)cn1` [Compound 118, 4-(2-methyl-6,7-dihydropyrazolo[1,5-a]pyrimidin-4(5H)-yl)-4-oxo-N-(5′-(trifluoromethyl)-[3,3′-bipyridin]-6-yl)butanamide], below 100 nM. For the compound `Cc1cc2n(n1)CCCN2C(=O)CCC(=O)Nc1cc(C)c(-c2cccnc2)cn1` [Compound 119, N-(4-methyl-3,3′-bipyridin-6-yl)-4-(2-methyl-6,7-dihydropyrazolo[1,5-a]pyrimidin-4(5H)-yl)-4-oxobutanamide], the IC50 is below 5000 nM. To `Cc1cncc(-c2cnc(NC(=O)CCC(=O)N3CCCn4nc(C)cc43)cc2C)c1` [Compound 120, N-(4,5′-dimethyl-3,3′-bipyridin-6-yl)-4-(2-methyl-6,7-dihydropyrazolo[1,5-a]pyrimidin-4(5H)-yl)-4-oxobutanamide] belongs below 5000 nM. On to `Cc1ccc(-c2ccc(NC(=O)CCC(=O)N3CCCn4nc(C)cc43)nc2)cn1` [Compound 121, N-(6′-methyl-3,3′-bipyridin-6-yl)-4-(2-methyl-6,7-dihydropyrazolo[1,5-a]pyrimidin-4(5H)-yl)-4-oxobutanamide], for which the IC50 was below 100 nM. The value for `Cc1cc2n(n1)CCCN2C(=O)CCC(=O)Nc1cnc(-c2cncc(F)c2)cn1` [Compound 122, N-(5-(5-fluoropyridin-3-yl)pyrazin-2-yl)-4-(2-methyl-6,7-dihydropyrazolo[1,5-a]pyrimidin-4(5H)-yl)-4-oxobutanamide] was below 100 nM; that for `Cc1cc2n(n1)CCCN2C(=O)CCC(=O)Nc1cnc(-c2cccc(F)c2)cn1` [Compound 123, N-(5-(3-fluorophenyl)pyrazin-2-yl)-4-(2-methyl-6,7-dihydropyrazolo[1,5-a]pyrimidin-4(5H)-yl)-4-oxobutanamide] was below 100 nM. As for `Cc1cncc(-c2cnc(NC(=O)CCC(=O)N3CCCn4nc(C)cc43)cn2)c1` [Compound 124, 4-(2-methyl-6,7-dihydropyrazolo[1,5-a]pyrimidin-4(5H)-yl)-N-(5-(5-methylpyridin-3-yl)pyrazin-2-yl)-4-oxobutanamide], the IC50 was below 100 nM. The value for `Cc1cc2n(n1)CCCN2C(=O)CCC(=O)Nc1cnc(-c2cccnc2)c(C)n1` [Compound 125, N-(6-methyl-5-(pyridin-3-yl)pyrazin-2-yl)-4-(2-methyl-6,7-dihydropyrazolo[1,5-a]pyrimidin-4(5H)-yl)-4-oxobutanamide] was above 10000 nM.

`Cc1cccc(-c2cnc(NC(=O)CCC(=O)N3CCCn4nc(C)cc43)cn2)c1` [Compound 126, 4-(2-methyl-6,7-dihydropyrazolo[1,5-a]pyrimidin-4(5H)-yl)-4-oxo-N-(5-(m-tolyl)pyrazin-2-yl)butanamide] showed an IC50 below 100 nM. `Cc1ccc(-c2cnc(NC(=O)CCC(=O)N3CCCn4nc(C)cc43)cn2)cn1` [Compound 127, 4-(2-methyl-6,7-dihydropyrazolo[1,5-a]pyrimidin-4(5H)-yl)-N-(5-(6-methylpyridin-3-yl)pyrazin-2-yl)-4-oxobutanamide]: the IC50 was below 1000 nM.

Compound `Cc1cncc(-c2ccc(NC(=O)CCC(=O)N3CCCn4nc(C)cc43)nc2)n1` [Compound 128, 4-(2-methyl-6,7-dihydropyrazolo[1,5-a]pyrimidin-4(5H)-yl)-N-(5-(6-methylpyrazin-2-yl)pyridin-2-yl)-4-oxobutanamide] had an IC50 below 100 nM. To `Cc1cc2n(n1)CCCN2C(=O)CCC(=O)Nc1ccc(-c2cnccn2)cc1` [Compound 129, 4-(2-methyl-6,7-dihydropyrazolo[1,5-a]pyrimidin-4(5H)-yl)-4-oxo-N-(4-(pyrazin-2-yl)phenyl)butanamide] belongs below 100 nM. The compound `Cc1cc2n(n1)CCCN2C(=O)CCC(=O)N(C)c1cc(-c2cccc(Cl)c2)no1` [Compound 130, N-(3-(3-chlorophenyl)isoxazol-5-yl)-N-methyl-4-(2-methyl-6,7-dihydropyrazolo[1,5-a]pyrimidin-4(5H)-yl)-4-oxobutanamide] came in with a 50% inhibitory concentration (IC50) above 10000 nM.

With `Cc1cc2n(n1)CCCN2CCCCNc1cc(-c2cccc(Cl)c2)no1` [Compound 131, 3-(3-chlorophenyl)-N-(4-(2-methyl-6,7-dihydropyrazolo[1,5-a]pyrimidin-4(5H)-yl)butyl)isoxazol-5-amine], the IC50 is above 10000 nM. `Cc1cc2n(n1)CCCN2C(=O)C(C)CC(=O)Nc1cc(-c2cccc(Cl)c2)no1` (stereo not drawn) [Compound 132, N-(3-(3-chlorophenyl)isoxazol-5-yl)-3-methyl-4-(2-methyl-6,7-dihydropyrazolo[1,5-a]pyrimidin-4(5H)-yl)-4-oxobutanamide] displayed an IC50 above 10000 nM.

`O=C(CCC(=O)N1CCCn2nccc21)Nc1cc(-c2cccc(Cl)c2)no1` [Compound 133, N-(3-(3-chlorophenyl)isoxazol-5-yl)-4-(6,7-dihydropyrazolo[1,5-a]pyrimidin-4(5H)-yl)-4-oxobutanamide]: the IC50 is above 10000 nM. `O=C(CCC(=O)N1CCCn2nc(C(F)(F)F)cc21)Nc1cc(-c2cccc(Cl)c2)no1` [Compound 134, N-(3-(3-chlorophenyl)isoxazol-5-yl)-4-oxo-4-(2-(trifluoromethyl)-6,7-dihydropyrazolo[1,5-a]pyrimidin-4(5H)-yl)butanamide]: the IC50 is below 100 nM. To `COc1cc2n(n1)CCCN2C(=O)CCC(=O)Nc1cc(-c2cccc(Cl)c2)no1` [Compound 135, N-(3-(3-chlorophenyl)isoxazol-5-yl)-4-(2-methoxy-6,7-dihydropyrazolo[1,5-a]pyrimidin-4(5H)-yl)-4-oxobutanamide] belongs above 10000 nM; to `COC(=O)c1cc2n(n1)CCCN2C(=O)CCC(=O)Nc1cc(-c2cccc(Cl)c2)no1` [Compound 136, methyl 4-(4-(3-(3-chlorophenyl)isoxazol-5-ylamino)-4-oxobutanoyl)-4,5,6,7-tetrahydropyrazolo[1,5-a]pyrimidine-2-carboxylate], above 10000 nM; to `CCc1cc2n(n1)CCCN2C(=O)CCC(=O)Nc1cc(-c2cccc(Cl)c2)no1` [Compound 137, N-(3-(3-chlorophenyl)isoxazol-5-yl)-4-(2-ethyl-6,7-dihydropyrazolo[1,5-a]pyrimidin-4(5H)-yl)-4-oxobutanamide], below 100 nM. The value for `Cc1cc2n(n1)CCN2C(=O)CCC(=O)Nc1cc(-c2cccc(Cl)c2)no1` [Compound 138, N-(3-(3-chlorophenyl)isoxazol-5-yl)-4-(6-methyl-2,3-dihydro-1H-imidazo[1,2-b]pyrazol-1-yl)-4-oxobutanamide] was above 10000 nM.

(Values after US10189842B2 (Agency for Science, Technology and Research, priority 2013, dated 2019).)
